The values that follow come from ChEMBL document CHEMBL1144284, “Pharmacophore identification of alpha(1A)-adrenoceptor antagonists” (Bioorg Med Chem Lett, 2005).

The target in one experiment is T1, Alpha-1A adrenergic receptor (Homo sapiens, UniProt P35348).
T1 sequence (P35348 whole entry): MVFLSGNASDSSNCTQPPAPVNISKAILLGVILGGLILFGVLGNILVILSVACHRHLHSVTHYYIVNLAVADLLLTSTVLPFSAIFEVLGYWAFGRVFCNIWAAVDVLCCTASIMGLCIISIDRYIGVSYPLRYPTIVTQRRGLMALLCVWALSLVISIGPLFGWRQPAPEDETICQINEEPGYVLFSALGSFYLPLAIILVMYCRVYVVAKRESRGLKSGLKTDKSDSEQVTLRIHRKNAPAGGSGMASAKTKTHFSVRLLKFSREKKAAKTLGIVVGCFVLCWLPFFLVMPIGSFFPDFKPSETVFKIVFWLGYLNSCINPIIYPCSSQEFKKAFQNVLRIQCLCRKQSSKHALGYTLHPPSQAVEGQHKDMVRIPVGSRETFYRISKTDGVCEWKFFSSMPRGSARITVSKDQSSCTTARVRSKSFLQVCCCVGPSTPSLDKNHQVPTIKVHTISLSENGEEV
The experiment is described as follows: Binding constant measured against Alpha-1A adrenergic receptor in human prostate; +++:highly active. Format: tissue-based, Prostate gland.
As for `COc1cccc(OC)c1OCCNC[C@H]1CSc2ccccc2O1`, the affinity, expressed as Ki, was 0.2 nM.

With `CC(C)Oc1ccccc1N1CCN(CCCNC(=O)CN2CCCCC2=O)CC1` [RWJ-69736], the Ki – broadly, the equilibrium dissociation constant of an inhibitor or competing ligand from its target – stood at 0.65 nM.

Consider `COc1cccc(OC)c1OCCNC[C@@H]1Oc2ccccc2O[C@H]1c1ccc(C)cc1`, for which the Ki turned out to be 0.35 nM.

Turning to `CC(C)(Cc1c[nH]c2ccc(Cl)cc12)NCCOc1ccccc1OCC1CC1`, the Ki came to 0.6 nM.

`COCC1=C(C(=O)OC)[C@H](c2ccc(F)c(F)c2)N(C(=O)NCCCN2CCC(c3ccccn3)CC2)C(=O)N1` registered an inhibition constant (Ki) of 0.36 nM.

In turn, `C[C@H](Cc1cc2c(c(C(N)=O)c1)N(CCCO)CC2)NCCOc1ccccc1OCC(F)(F)F` [SILODOSIN] displayed a Ki of 0.036 nM.

A further experiment concerns the target T1, Alpha-1A adrenergic receptor. The experiment is described as follows: Binding constant measured against Alpha-1A adrenergic receptor in human prostate; +:inactive. Format: tissue-based, Prostate gland.
Turning to `CCS(=O)(=O)Nc1cccc(C(=C2CCCCC2)c2c[nH]cn2)c1`, the affinity corresponds to a Ki of 490 nM.

`C[C@H](CN1CCN(c2cc(F)c(F)cc2F)CC1)N1C(=O)CC2(CCCC2)CC1=O` displayed a Ki of 290 nM.

Turning to `COc1cc2c3c(c1OC)-c1cc4c(cc1C[C@@H]3N(C)CC2)OCO4`, the affinity, expressed as Ki, was 430 nM.

`N=C(CC(O)COc1ccccc1-c1ccccc1)N1CCCCC1` (stereo not given) had a Ki of 2500 nM.

Another experiment has the same target. The experiment is described as follows: Binding constant measured against Alpha-1A adrenergic receptor in human prostate; ++:moderately active. The experiment is classed as tissue-based, Prostate gland.
Turning to `C[C@@]1(O)C(=O)N(CCCN2CCN(c3ccc(F)cc3OCC(F)(F)F)CC2)C(=O)N[C@@H]1O`, affinity was put at a Ki of 5 nM. This counts as single-digit nanomolar.

As to `COc1cccc(OC)c1OCCNCC1Oc2ccccc2OC1c1ccc(C)cc1` (stereo not given), affinity was put at a Ki of 4.1 nM.

The compound `CC(C)Oc1ccccc1N1CCN(CCNC(=O)CN2CCCCC2=O)CC1` [RWJ-38063] came in with a Ki of 9.3 nM.

The compound `CCOC(=O)C1CCC(=O)N1CC(=O)CCN1CCN(c2ccccc2OC(C)C)CC1` (stereo not given) registered a Ki of 59 nM.

`COc1ccccc1N1CCN(CCN2C(=O)c3ccccc3C(C)(C)C2=O)CC1` returned a Ki of 1 nM.

As to `COc1ccccc1N1CCN(CC(O)COc2cccc3ccccc23)CC1` (stereo not given) [NAFTOPIDIL], the Ki was 3.7 nM.

Compound `N=C(Nc1ccccc1)N1CCN(/C=C2/N=C(c3cccc4ccccc34)OC2=O)CC1` registered a Ki of 41 nM.

Turning to `CC(C)Oc1ccccc1N1CCN(CCNC(=O)CN2CCCCCC2=O)CC1` [RWJ-68157], the affinity corresponds to a Ki of 22 nM.

`O=C(CCCN1CCC2(CC1)C(=O)NCN2c1ccccc1)c1ccc(F)cc1` [SPIPERONE] yielded a Ki of 7.9 nM.

With `COc1ccc(Cl)cc1N1CCN(CCCNc2nccc(C(N)=O)n2)CC1`, the Ki was found to be 2 nM.
